Results reported in patent US11819492B2, “Natural product derivatives for inhibiting cellular necroptosis, ferroptosis and oxytosis” (Institut National de la Sante et de la Recherche Medicale …, priority 2016, dated 2023).

Experiments:
[1] = system: Jurkat FADD-deficient I 2.1 cell line; test: TNF-α-induced necroptosis in Jurkat FADD-deficient cells, MTS viability assay; type: cell-based, human; conditions: TNF-α 10 ng/ml, 24 hours
Excerpt: TNF-α can induce necroptosis in Jurkat cells (human T lymphocytes) when FADD is deleted. This model was used to screen various libraries of chemical compounds for characterization of new inhibitors of cellular necroptosis. Details on this cell-based assay can be found in Miao and Degterev (Methods Mol. Biol. 2009, 559, 79-93). The Jurkat FADD-deficient I 2.1 cell line used was purchased from ATCC and was maintained in RPMI 1640 medium (Gibco) containing Glutamax and 15% fetal calf serum (Life Technology). Necroptosis was induced by addition of 10 ng/ml of human recombinant TNF-α (Life Technology). Necrostatin-1 (Nec-1, Enzo Life Sciences) was used as model necroptosis inhibitor. Cells were maintained in 75 cm^2 flask and passed every 2 or 3 days. Chemical collections analysed were formatted in 96-well plates with 80 molecules per plate at 10 mM in 100% DMSO. […]
Cells were incubated at 37° C., 5% CO2 for 24 hours before performing MTS viability assay. Cell viability was monitored using CellTiter 96® AQueous Non-Radioactive Cell Proliferation Assay (Promega, Fitchburg, WI, USA), based on the water-soluble tetrazolium compound MTS (3-[4,5-dimethylthiazol-2-yl]-5-[3-carboxymethoxy-phenyl]-2-[4-sulfophenyl]-2H-tetrazolium, inner salt) according to the manufacturers instructions.

[2] = system: Human Peripheral Blood Lymphocytes (hPBLs); test: Cytotoxicity on human peripheral blood lymphocytes (MTS); type: cell-based; conditions: 0-100 μM tested, 24 hours, FIG. 4
Experimental: Viability was assessed by cell proliferation assay (MTS). % of cell viability was determined using the CellTiter 96® AQueous Non-Radioactive Cell Proliferation Assay (Promega). Data represent the quantitative analysis of six independent experiments with means±SD (n=6 individuals).

[3] = system: hRPE-1 cells; test: Cytotoxicity on human retinal pigment epithelial cell line (MTS); type: cell-based; conditions: 0-50 μM tested, 24 hours, FIG. 5
Excerpt: A colorimetric MTS assay was used to calculate the percentage of cell viability.

[4] = system: 456 kinases, including eight lipid kinases; test: KINOMEscan Max competition binding assay, profiling against 456 kinases; design: species or system human; conditions: poor affinity = over 30% of kinase still on the affinity matrix, FIG. 8
Experimental: This experimental approach quantitatively measures the ability of a compound to compete with an immobilized, active-site directed ligand. […] The ability of compound 1 to compete with the immobilized ligand is measured via quantitative PCR of the DNA tag. The codes reported on the FIG. 8 indicate the subclasses of protein kinases: CMGC for CDKs, MAP kinases, GSK and CDK-like kinases; AGC for Protein kinase A, G, and C families (PKA, PKC, PKG); CAMK for Ca2+/calmodulin-dependent protein kinases; CK1, Cell Kinases 1 (originally known as Casein Kinase 1); STE, STE Kinases (Homologs of yeast STErile kinases); TKL, Tyrosine Kinases-Like; TK, Tyrosine Kinases. Each kinase tested in the assay panel is marked with a circle. The hit kinase reported, RIPK1, is marked with a black circle.

[5] = system: Human retinal pigment epithelial cell line, ARPE-19; test: NaIO3-induced retinal cell death (cellular model of AMD), MTS viability assay; type: cell-based; conditions: subtoxic concentration (+/−20 μM), 10 mM NaIO3, 24 hours, P<0.001
Experimental: At it was previously shown (Hanus et al. Cell Death Discov. 2016, 2, 16054), NaIO3 is an oxidizing agent that induces necroptosis in retinal pigment epithelial cell line that can be inhibited by 200 μM of necrostatin-1. […] Human retinal pigment epithelial cell line, ARPE-19, was treated with 10 mM of NaIO3 as cellular model of age-related macular degeneration (AMD). […] Cells were then incubated at 37° C., 5% CO2 for 24 hours before performing MTS viability assay. Cell viability was monitored using CellTiter 96® AQueous Non-Radioactive Cell Proliferation Assay (Promega, Fitchburg, WI, USA), based on the water-soluble tetrazolium compound MTS (3-[4,5-dimethylthiazol-2-yl]-5-[3-carboxymethoxy-phenyl]-2-[4-sulfophenyl]-2H-tetrazolium, inner salt) according to the manufacturers instructions.

[6] = system: Porcine LLC-PK1 cells (kidney proximal tubule cell line); test: Cold-induced cell death (cold storage), MTS viability assay; type: cell-based; conditions: 24 hours at 4° C.
Experimental: At it was previously shown (Ahlenstiel et al. Transplantation […], 81(2), 231-239), cold storage induces a cell-death process. Porcine LLC-PK1 cells (kidney proximal tubule cell line) were stored at approximately 4° C. during 24 hours with or without the tested molecules. […] Cells were then incubated at 37° C., 5% CO2 before performing MTS viability assay. Cell viability was monitored using CellTiter 96® AQueous Non-Radioactive Cell Proliferation Assay (Promega, Fitchburg, WI, USA), based on the water-soluble tetrazolium compound MTS (3-[4,5-dimethylthiazol-2-yl]-5-[3-carboxymethoxy-phenyl]-2-[4-sulfophenyl]-2H-tetrazolium, inner salt) according to the manufacturers instructions.

[7] = system: rat embryonic myoblastic H9C2 cells; test: H2O2-induced necrosis, LDH release assay; type: cell-based; conditions: 10 μM, 2 hours pretreatment, 800 μM H2O2 for 24 hours, FIG. 17
Experimental: The rat embryonic myoblastic H9C2 cells were cultured at 10,000 cells/well in 96-well-plates for 24 hours at 37° C./5% CO2. […] LB corresponds to cells treated with a lysis buffer (100% of cell death). Cell cytotoxicity was determined by a colorimetric assay quantitatively measuring lactate dehydrogenase (LDH) released […].

## COc1cc(O)c2c(c1)OC(O)(c1ccc(OCc3ccccc3)cc1)CC2=O (stereo not drawn) [compound 1]
[1]; 0.01-50.00 μM, FIG. 1
  protection of cell viability from death induced by TNF-α: protects cells from death induced by TNF-α
[1]; screening at 10 μM
  necroptosis inhibition in the library screening: very efficient necroptosis inhibitor
[2]
  concentration up to which not cytotoxic towards hPBLs: ≤ 20 µM
[3]
  cytotoxicity towards hRPE-1 cells: not cytotoxic
[4]
  specificity for RIPK1 among the large panel of tested kinases: high specificity
[5]
  protection from death induced by NaIO3: protects significantly
[6]; 0.01-50.00 μM, FIGS. 16a, 16b
  protection from death induced by cold storage: protects cells from death induced by cold storage
[6]
  concentration of maximal activity against cold-induced cell death: 504
[7]
  protection from death induced by H2O2 (LDH release): protects from death induced by H2O2
